# How the values were obtained:
# rTAAR1 = details: read-out: EC50 Rat TAAR1; cited from earlier work
# mTAAR1 = details: read-out: EC50 Mouse TAAR1; cited from earlier work
# DAT = details: read-out: EC50 in rat synaptosomes; reference not given; cited from earlier work
# [1] = cited from earlier work; for excitation in humans: doses of 100 mg (or greater)
# hTAAR1 = molecular target: T1, hTAAR1 (Homo sapiens, UniProt Q96RJ0); type: cell-based
# T1 sequence (Q96RJ0 1-339): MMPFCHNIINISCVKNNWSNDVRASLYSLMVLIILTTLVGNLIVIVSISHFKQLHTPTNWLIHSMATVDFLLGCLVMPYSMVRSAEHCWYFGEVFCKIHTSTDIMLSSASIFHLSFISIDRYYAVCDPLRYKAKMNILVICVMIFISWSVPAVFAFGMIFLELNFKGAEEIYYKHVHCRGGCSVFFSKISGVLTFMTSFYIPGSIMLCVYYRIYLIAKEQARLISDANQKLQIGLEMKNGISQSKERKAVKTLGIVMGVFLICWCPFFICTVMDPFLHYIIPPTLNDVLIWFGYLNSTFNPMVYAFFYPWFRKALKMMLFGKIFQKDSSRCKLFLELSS
smiles,measurement,setting,value
"C[C@H](N)Cc1ccccc1 [(S)-1, (S)-amphetamine]",EC50,rTAAR1,1200 ± 70 nM
same,EC50,mTAAR1,2 ± 1 nM
"C[C@H](N)Cc1ccc2c(c1)OCO2 [(S)-3, (S)-3,4-methylenedioxyamphetamine]",excitation in humans,[1],excitation
"C[C@@H](N)Cc1ccccc1 [(R)-1, (R)-amphetamine]",EC50,rTAAR1,1400 ± 600 nM
same,EC50,mTAAR1,65 ± 53 nM
"COc1cc(C[C@H](C)N)c(OC)cc1C [(S)-8, (S)-4-methyl-2,5-dimethoxyamphetamine]",agonist activity at hTAAR1 (in words),hTAAR1,lack of observed agonist activity
"CN[C@@H](C)Cc1ccc2c(c1)OCO2 [(S)-4, (S)-3,4-methylenedioxymethamphetamine]",excitation in humans,[1],excitation
"C[C@H](N)Cc1cccc(C(F)(F)F)c1 [(S)-6, (S)-norfenfluramine]","EC50 Human, potency to activate TAAR1",hTAAR1,active ^*
"COc1cc(C[C@H](C)N)c(OC)cc1Br [(S)-7, (S)-4-bromo-2,5-dimethoxyamphetamine]",effect in humans,[1]; doses of 0.5–1.0 mg,no effect
